Laboratory results taken from PubChem BioAssay (NCI).
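Each compound was tested at five concentrations against cells in 96-well plates for 48 hours. TGI is the concentration that stops growth completely.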

Tests used:
Assay in all cases: NCI tumour cell line growth inhibition, 48 h
NCI-H226 lung = system: NCI-H226 lung
MDA-MB-231 breast = system: MDA-MB-231 breast
U251 CNS = system: U251 CNS
HS 578T breast = system: HS 578T breast
RXF 393 renal = system: RXF 393 renal
NCI/ADR-RES ovarian = system: NCI/ADR-RES ovarian
SW-620 colon = system: SW-620 colon
HL-60(TB) leukemia = system: HL-60(TB) leukemia
MCF7 breast = system: MCF7 breast
ACHN renal = system: ACHN renal
HT29 colon = system: HT29 colon
NCI-H460 lung = system: NCI-H460 lung
K-562 leukemia = system: K-562 leukemia
SF-295 CNS = system: SF-295 CNS
HCC-2998 colon = system: HCC-2998 colon
SK-MEL-28 melanoma = system: SK-MEL-28 melanoma
786-0 renal = system: 786-0 renal
DU-145 prostate = system: DU-145 prostate
SF-268 CNS = system: SF-268 CNS
OVCAR-8 ovarian = system: OVCAR-8 ovarian
NCI-H23 lung = system: NCI-H23 lung
EKVX NSCLC = system: EKVX NSCLC
SK-MEL-2 melanoma = system: SK-MEL-2 melanoma
M14 melanoma = system: M14 melanoma
IGROV1 ovarian = system: IGROV1 ovarian
HCT-15 colon = system: HCT-15 colon
UACC-257 melanoma = system: UACC-257 melanoma
HCT-116 colon = system: HCT-116 colon
BT-549 breast = system: BT-549 breast
UO-31 renal = system: UO-31 renal
OVCAR-4 ovarian = system: OVCAR-4 ovarian
T-47D breast = system: T-47D breast
SNB-19 CNS = system: SNB-19 CNS
MOLT-4 leukemia = system: MOLT-4 leukemia
COLO 205 colon = system: COLO 205 colon
HOP-62 NSCLC = system: HOP-62 NSCLC
A549 NSCLC = system: A549 NSCLC
SF-539 CNS = system: SF-539 CNS
SK-OV-3 ovarian = system: SK-OV-3 ovarian
TK-10 renal = system: TK-10 renal
HOP-92 NSCLC = system: HOP-92 NSCLC
MDA-MB-435 = system: MDA-MB-435
A498 renal = system: A498 renal
SN12C renal = system: SN12C renal
SNB-75 CNS = system: SNB-75 CNS
UACC-62 melanoma = system: UACC-62 melanoma
OVCAR-3 ovarian = system: OVCAR-3 ovarian
OVCAR-5 ovarian = system: OVCAR-5 ovarian
KM12 colon = system: KM12 colon
RPMI-8226 leukemia = system: RPMI-8226 leukemia
SK-MEL-5 melanoma = system: SK-MEL-5 melanoma
MALME-3M melanoma = system: MALME-3M melanoma
NCI-H522 lung = system: NCI-H522 lung
PC-3 prostate = system: PC-3 prostate
LOX IMVI melanoma = system: LOX IMVI melanoma
CAKI-1 renal = system: CAKI-1 renal
CCRF-CEM leukemia = system: CCRF-CEM leukemia

COc1cc(C2SCC(=O)N2NC(=O)c2ccc(NC(C)=O)cc2)cc(OC)c1OC (configuration not stated)
TGI (NCI-H226 lung): > 100 µM | TGI (MDA-MB-231 breast): > 100 µM | TGI (U251 CNS): > 100 µM | TGI (HS 578T breast): > 100 µM | TGI (RXF 393 renal): > 100 µM | TGI (NCI/ADR-RES ovarian): > 100 µM | TGI (SW-620 colon): > 100 µM | TGI (HL-60(TB) leukemia): > 100 µM | TGI (MCF7 breast): > 100 µM | TGI (ACHN renal): > 100 µM | TGI (HT29 colon): > 100 µM | TGI (NCI-H460 lung): > 100 µM | TGI (K-562 leukemia): > 100 µM | TGI (SF-295 CNS): > 100 µM | TGI (HCC-2998 colon): > 100 µM | TGI (SK-MEL-28 melanoma): > 100 µM | TGI (786-0 renal): > 100 µM | TGI (DU-145 prostate): > 100 µM | TGI (SF-268 CNS): > 100 µM | TGI (OVCAR-8 ovarian): > 100 µM | TGI (NCI-H23 lung): > 100 µM | TGI (EKVX NSCLC): > 100 µM | TGI (SK-MEL-2 melanoma): > 100 µM | TGI (M14 melanoma): > 100 µM | TGI (IGROV1 ovarian): > 100 µM | TGI (HCT-15 colon): > 100 µM | TGI (UACC-257 melanoma): > 100 µM | TGI (HCT-116 colon): > 100 µM | TGI (BT-549 breast): > 100 µM | TGI (UO-31 renal): > 100 µM | TGI (OVCAR-4 ovarian): > 100 µM | TGI (T-47D breast): > 100 µM | TGI (SNB-19 CNS): > 100 µM | TGI (MOLT-4 leukemia): > 100 µM | TGI (COLO 205 colon): > 100 µM | TGI (HOP-62 NSCLC): > 100 µM | TGI (A549 NSCLC): > 100 µM | TGI (SF-539 CNS): > 100 µM | TGI (SK-OV-3 ovarian): > 100 µM | TGI (TK-10 renal): > 100 µM | TGI (HOP-92 NSCLC): > 100 µM | TGI (MDA-MB-435): > 100 µM | TGI (A498 renal): > 100 µM | TGI (SN12C renal): > 100 µM | TGI (SNB-75 CNS): > 100 µM | TGI (UACC-62 melanoma): > 100 µM | TGI (OVCAR-3 ovarian): > 100 µM | TGI (OVCAR-5 ovarian): > 100 µM | TGI (KM12 colon): > 100 µM | TGI (RPMI-8226 leukemia): > 100 µM | TGI (SK-MEL-5 melanoma): > 100 µM

Cc1cc(S(=O)(=O)Nc2n[nH]c(Nc3ccccc3)n2)c(S)cc1Cl
TGI (NCI-H226 lung): > 10 µM | TGI (MDA-MB-231 breast): > 10 µM | TGI (U251 CNS): > 10 µM | TGI (HS 578T breast): > 10 µM | TGI (RXF 393 renal): > 10 µM | TGI (MALME-3M melanoma): > 10 µM | TGI (NCI/ADR-RES ovarian): > 10 µM | TGI (SW-620 colon): > 10 µM | TGI (NCI-H522 lung): > 10 µM | TGI (HL-60(TB) leukemia): > 10 µM | TGI (MCF7 breast): > 10 µM | TGI (ACHN renal): > 10 µM | TGI (HT29 colon): > 10 µM | TGI (NCI-H460 lung): > 10 µM | TGI (PC-3 prostate): > 10 µM | TGI (K-562 leukemia): > 10 µM | TGI (SF-295 CNS): > 10 µM | TGI (HCC-2998 colon): > 10 µM | TGI (SK-MEL-28 melanoma): > 10 µM | TGI (786-0 renal): > 10 µM | TGI (DU-145 prostate): > 10 µM | TGI (SF-268 CNS): > 10 µM | TGI (OVCAR-8 ovarian): > 10 µM | TGI (NCI-H23 lung): > 10 µM | TGI (EKVX NSCLC): > 10 µM | TGI (SK-MEL-2 melanoma): > 10 µM | TGI (M14 melanoma): > 10 µM | TGI (IGROV1 ovarian): > 10 µM | TGI (HCT-15 colon): > 10 µM | TGI (LOX IMVI melanoma): > 10 µM | TGI (UACC-257 melanoma): > 10 µM | TGI (HCT-116 colon): > 10 µM | TGI (BT-549 breast): > 10 µM | TGI (UO-31 renal): > 10 µM | TGI (OVCAR-4 ovarian): > 10 µM | TGI (T-47D breast): > 10 µM | TGI (SNB-19 CNS): > 10 µM | TGI (MOLT-4 leukemia): > 10 µM | TGI (COLO 205 colon): > 10 µM | TGI (HOP-62 NSCLC): > 10 µM | TGI (A549 NSCLC): > 10 µM | TGI (SF-539 CNS): > 10 µM | TGI (SK-OV-3 ovarian): > 10 µM | TGI (TK-10 renal): > 10 µM | TGI (MDA-MB-435): > 10 µM | TGI (A498 renal): > 10 µM | TGI (SN12C renal): > 10 µM | TGI (SNB-75 CNS): > 10 µM | TGI (CAKI-1 renal): > 10 µM | TGI (UACC-62 melanoma): > 10 µM | TGI (CCRF-CEM leukemia): > 10 µM | TGI (OVCAR-3 ovarian): > 10 µM | TGI (OVCAR-5 ovarian): > 10 µM | TGI (KM12 colon): > 10 µM | TGI (RPMI-8226 leukemia): > 10 µM | TGI (SK-MEL-5 melanoma): > 10 µM
